Key:
Type in all cases: cell-based
[1] = test system: phosphorylated-EGFR in HEP 3B and PLC/RF5 cells; experiment: Western blot of Tyr 1173 phosphorylated EGFR in HCC cell lines; conditions: both cell lines, SR 48692 added to SB216763 treatment
Description: (§1) (A) Typical immunocytochemistry labeling for NTSR1 (Top) and EGFR (Bottom) in PLC/RF5 and HEP 3B cells treated or not with 1 μM SB216763 or 5 μM SR4892 or both for 48 h. (B and C) Representative western blot analyses of Tyr 1173 phosphorylated EGFR, EGFR, and actin of HEP 3B and PLC/RF5 treated as indicate above.
In both cell lines, phosphorylated-EGFR was increased under SB216763 treatment this increase was abolished when SR 48692 was added to the treatment.

[2] = test system: PLC-R1a and PLC-R2a cells; experiment: Migration assay on type 1 collagen, PLC/PRF5 NTSR1 overexpressing clones; conditions: 5 μM SR 48692, vs DMSO
Description: (§2) (A) Speed of migration on type 1 collagen of HEP 3B and NTSR1 overexpressing clones treated or not with 1/100 NTS or 1/100 Long Fragment NTS antibody. Results represent the mean±SEM of 5 independent experiments. (B) Speed of migration on type 1 collagen of PLC/RF5 and NTSR1 overexpressing clones in the presence or not of 5 μM SR 48692. Results represent the mean±SEM of 3 independent experiments. (C) Numbers of invasive cells crossing the type I collagen in Boyden chamber when HEP 3B and NTSR1 overexpressing clones were treated or not with NTS or Long Fragment NTS antibody or 5 μM. SR 48692. Results are expressed relatively to wild type cells and represent the mean±SEM of 5 to 7 independent experiments.
Migration assays were used to evaluate the effect of NTS/NTSR1 on cancer cell migration, another hallmark contributing to the invasion and metastasis of cancers. The procedure described in the methods section allows the comparison of the migration speed between both cell lines at the same time over a period of 48 h, and on the intact type I collagen matrix. […] Similar observations were made with PLC/PRF5 cells and derivative clones.

[3] = test system: NTSR1 expression in HEP 3B and PLC/PRF5 cells; experiment: NTSR1 immunocytochemistry labeling in HCC cell lines; conditions: PLC/PRF5 and HEP3B, 48 h; 1 μM SB216763 or 5 μM SR48692
Description: (A) NTS, NTSR2, NTSR3, and NTSR1 transcript analysis from 400 ng of HuH7, HEP 3B, and PLC/RF5, total RNA. NTSR1 A and NTSR1 B show the amplicon from two different set of primers. (B) Typical immunocytochemistry labeling for NTSR1 and DAPI in HEP 3B and PLC/RF5 cells. Cells were seeded on glass slides, grown for 48 h, and immunocytochemistry was performed as described in the Materials and Methods section. (C) NTSR1 transcript analysis from HuH7, HEP 3B and PLC/RF5 of total RNA from cells treated or not with […] LiCl for 6 h. (D) Typical immunocytochemistry NTSR1 labeling of HEP 3B and PLC/RF5 cells treated with 1 μM SB 216763 for 6 h.
as §1
Among the three cell lines studied, only PLC/PRF5 cells presented a dysregulation in the beta catenin pathway with a deletion in Axin (E4/−). […] We previously hypothesized that NTSR1 expression was correlated with deregulated wnt/beta catenin pathways. To evaluate this hypothesis, we forced the cellular and nuclear relocation of β-catenin in these cells lines with the LiCl, and an inhibitor of the glycogen synthase kinase (GSK) 3β, the SB216763. LiCl and SB216763 are known to decrease the degradation of β-catenin by inhibiting GSK-3 and promoting the accumulation of β-catenin in the cytoplasm of liver cancer cells.
It was previously shown that the NTS/NTSR1 complex potentiates EGF signaling in liver, colon, prostate, lung, and breast cancer. We investigated the possible relation between NTSR1 expression and EGFR expression and activation. […] Treatment with SR48692, a specific NTSR1 antagonist, decreased the expression of EGFR, whereas NTSR1 expression was not altered. When the combined treatment with SB216763 and SR48692 is used, the effect of SB216763 on EFGR expression is limited by the presence of the NTSR1 antagonist (FIG. 5A).

[4] = test system: HEP3B cells with upregulated NTSR1 (HEP-R1a, HEP-R1b); experiment: Boyden chamber invasion on type-I collagen-coated inserts; conditions: HEP3B NTSR1 clones, 36 hours, 5 μM SR 48692 or antibodies
Description: as §2
In parallel, Boyden chambers were used to examine the invasiveness characteristics of HCC cancer cells, on type-I collagen-coated inserts over 36 hours incubation. Compared with HEP 3B cells, the number of invading cancer cells for HEP-R1a cells and HEP-R1b cells is increased by 211±19% (p<0.01) and 617±94% (p<0.01), respectively. To determine whether NTS contributes to cellular invasion, cells were exposed to the NTSR1 antagonist, or two antibodies directed against NTS or the long fragment NTS. […] In our hands, the PLC/PRF5 cells were very invasive.

**Q.** How did the “SB216763-induced increase of phosphorylated-EGFR” value [1] turn out when `COc1cccc(OC)c1-c1cc(C(=O)NC2(C(=O)O)C3CC4CC(C3)CC2C4)nn1-c1ccnc2cc(Cl)ccc12` (centres unmarked) [SR48692] was run?
**A.** Its value is “abolished”.

**Q.** And the “decrease of migration speed” value ([2]; PLC-R1a cells)?
**A.** Its value is 27%.

**Q.** What about the “decrease of migration speed” value ([2]; PLC-R2a cells) of the same compound?
**A.** The value was 33%.

**Q.** And the NTSR1 expression [3]?
**A.** Its NTSR1 expression is “not altered”.

**Q.** What about the “increase of cellular invasion when NTSR1 is upregulated” value [4] of the same compound?
**A.** Its value is “fully or partially abolished”.

Source: patent US20180134788A1, “Methods and Pharmaceutical Compositions (NTSR1 Inhibitors) for the Treatment of Hepatocellular Carcinomas” (INSERM (Institut National de la Sante et de la Recherche …, priority 2015, published 2018)
